For series [1] the following is noted: Crystal; DTA.
The nature of series [2]: Molar enthalpy of transition or fusion. The following applies: Crystal; DSC.
Series [3] in a line: molar enthalpy of vaporization or sublimation. To be noted: 298.15 K; Crystal; Static calorimetry.

Numbers after ± are expanded uncertainties.

As for `O=c1ccc2ccc(O)cc2o1` [7-hydroxy-2H-chromen-2-one], in series [1], the Triple point temperature is listed as 503.74 ± 0.39 K. In series [2], the “Molar enthalpy of transition or fusion” value worked out at 7.47 ± 0.167 kcal/mol. The molar enthalpy in series [3] was found to be 31.9 ± 0.717 kcal/mol.

The values above are taken from the NIST ThermoML archive (doi:10.1016/j.jct.2011.04.015).
